How the values were obtained:
[1] = tested on: osteoclasts; experiment: TRAP staining of RANKL-induced osteoclast differentiation from macrophage; assay type: cell-based; settings: 100 ng/ml RANKL, five days
Text: (§1) The cells were stained with tartrate-resistant acid phosphatase (TRAP) and observed by microscopy to assure the differentiation of osteoclast after the cultivation of five days (Bar=200 μm).
To evaluate the effects of the liposomal lupeol acetate (Lipo-LA) of present invention on the suppression of rheumatoid arthritis, we firstly analyze the differentiation of osteoclasts from certain cells using the tartrate-resistant acid phosphatase (TRAP) staining method. The TRAP staining is used to detect the internal acid phosphatase activity of leukocytes in a blood, bone or tissue sample. Because osteoclasts contain acid phosphatase, we can use this staining method to determine the formation of osteoclast cells.
After removing the supernatant of culture, the cells are rinsed with PBS for two times, and then fixed with 3.7% paraformaldehyde for 1 hour. The fixed cells are washed with PBS. The Acid Phophatase Leukocyte kit (TRAP stain, Cat. 387-A, Sigma-Aldrich, USA) is used in the TRAP staining and the method is briefly described as follow. Before staining, the temperature of ddH2O used for adjuvant preparation is confirmed to be 37° C. The Fast Garnet GBC base and sodium nitrite solution at equal volumes are uniformly mixed for 30 seconds and incubated at room temperature for at least two minutes. […]

[2] = tested on: inflammatory condition induced by carrageenan; settings: Lucetti D L et al. J Inflamm 2010; cited from earlier work
[3] = tested on: TGF-β; experiment: TGF-β in mouse hind leg proteins, Western blotting; settings: 100 mg/kg LA or 50 mg/kg Lipo-LA, day 32
Protocol: (§4) The mice were sacrificed by cervical dislocation on the 32nd day of the animal experiment. The whole leg of mouse was removed, and the leg tissue was ground by adding an appropriate amount of lysis buffer (tissue protein extraction reagent, T-PER, Pierce Protein Biology Products, IL, USA), centrifuged at 15,000 rpm for 20 minutes, and the supernatant is taken as the sample for each group.
(§5) Meanwhile, we also use Western blotting to observe the proteins extracted from mouse hind legs, and observe the expression level of immunosuppression-related proteins TGF-β and IL-10 secreted from Treg cells.

[4] = tested on: collagen-induced arthritis (CIA) in DBA/1J mice; experiment: Collagen-induced arthritis (CIA) animal model; settings: oral daily
[5] = tested on: TNF-α; experiment: Immunohistochemistry of TNF-α in leg joints of CIA mice; assay type: in vivo, mouse; settings: 100 mg/kg LA or 50 mg/kg Lipo-LA, day 43, vs RA group
Text: (§2) In FIG. 8A, mice were sacrificed at the end of the animal experiment (day 43), and the legs was removed for the immunohistochemistry (IHC) of TNF-α and IL-1β and H&E staining. The arrows in H&E images indicate the position of articular cavity. There is significant accumulation of TNF-α and IL-1β appeared in the RA group.
(§3) Observing the suppressive effects of Lipo-LA on joint inflammation using immunohistochemistry (IHC). […] The legs of mouse were removed and subjected to paraffin embedding and sectioning. The sections were stained with anti-TNF-α and anti-IL-1β antibodies, respectively to assess the distribution of inflammatory cytokines.

[6] = tested on: IL-10; experiment: IL-10 in mouse hind leg proteins, Western blotting; settings: 100 mg/kg LA or 50 mg/kg Lipo-LA, day 32
Protocol: as §4, §5

[7] = tested on: IL-1β; experiment: Immunohistochemistry of IL-1β in leg joints of CIA mice; assay type: in vivo, mouse; settings: 100 mg/kg LA or 50 mg/kg Lipo-LA, day 43, vs RA group
Text: as §2, §3

[8] = tested on: rheumatoid arthritis; settings: US Patent Application no. 20120177754; 100 mg/kg, 12 days needed in mice; cited from earlier work
[9] = tested on: NFATc1; experiment: NFATc1 expression by real-time Q-PCR under RANKL induction; assay type: cell-based; settings: NF-κB inhibitor 5 nM
Text: as §1
Next, the real time Q-PCR is used for analyzing the change of NFATc1 (nuclear factor of activated T cell, the major factor of osteoclast proliferation and known as cytoplasmic 1) under the RANKL induction and drug treatments.

[10] = tested on: RAW 264.7 cells; experiment: MTT cell viability of RAW 264.7 cells; assay type: cell-based; settings: 2.5-10 nM, 24 hours
Protocol: RAW 264.7 cells (a mouse leukaemic monocyte macrophage cell line) were treated with solutions containing liposomal lupeol acetate (10 ? 20 ? 40 ? 80 μM) and NF-kB inhibitor QNZ (2.5 ? 5 ? 7.5 ? 10 nM), respectively, for 24 hours, then the viability was analyzed by MTT method, comparing to the results of the control group.
5×10^4 RAW264.7 cells/well were seeded in 96-well culture dishes, and treated with directed concentration of liposomal lupeol acetate and QNZ for 24 hours after the 24-hr attachment. After removing the culture medium, 100 μl of 0.5 mg/ml MTT solution was added, and the cells were incubated at 37° C. for 4 hours. The mitochondrial enzyme (succinate dehydrogenase, SDH) in living cells will react with tetrazolium bromide in the MTT solution and form formazan blue-purple crystals. The MTT solution was removed and 200 μl DMSO was added to dissolve the blue-purple crystal, and then the O.D. (optical density) value was read under wavelength of 570 nm on an ELISA reader (TECAN Sunrise, USA). The relative cell viability is calculated by comparing the absorbance value of drug treated group with that of the control group (setting the value of control group as 100%).

[11] = 100 mg/kg LA or 50 mg/kg Lipo-LA, vs RA group

Compound	differentiation of osteoclast from macrophage (TRAP staining) [1]	inflammatory condition induced by carrageenan in mice [2]	level of TGF-β [3]	arthritis scores (highest 16 points per mouse) [4, 11]	foot swelling [4, 11]	incidence of arthritis [4, 11]	toxic effects judged by changes in body weight of mice ([4]; 100 mg/kg LA)	TNF-α staining (IHC) in joint [5]	level of IL-10 [6]	IL-1β staining (IHC) in joint [7]	inhibiting inflammation and treatment of rheumatoid arthritis [8]	expression of NFATc1 [9]	cell death of RAW264.7 cells (cell viability, MTT) [10]
Lupeol acetate [LA]	inhibitory effects	effectively mitigate	rising trend	significantly less scores	significantly reduced	decreased incidence percentages	no toxic effects	improvements	rising trend	improvements	significant therapeutic effect		
Nc1ccc2ncnc(NCCc3ccc(Oc4ccccc4)cc3)c2c1 [QNZ]												reduces	does not cause significant cell death
